Experimental data: PubChem BioAssay AID330 (DTP/NCI, 2004)
Values joined by “and” are separate entries in the source; they are usually repeats but may differ in a detail not shown here. Equal values may be shown once. Toxic doses and inconclusive results are not listed. Peptide text beside a SMILES is read from it.

System: P388 leukemia ip, CD2F1 mice, survival T/C
Assay: NCI In Vivo Anticancer Drug Screen. Data for tumor model P388 Leukemia (intraperitoneal) in CD2F1 (CDF1) mice
Details: endpoint: median survival time, higher = longer survival
Outline: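 Mice carrying the transplanted tumor received test compound or vehicle. Survival was recorded in each group, and the value is the treated-group measurement divided by that of the vehicle-treated control group.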

[1] = dose: 60.0 mg/kg/injection, schedule: Q01DX005 (ip), vehicle: saline
[2] = dose: 120.0 mg/kg/injection, schedule: Q01DX005 (ip), vehicle: saline
[3] = dose: 240.0 mg/kg/injection, schedule: Q01DX005 (ip), vehicle: saline
[4] = dose: 6.25 mg/kg/injection, schedule: Q01DX009 (ip), vehicle: Klucel (hydroxypropylcellulose) (HPC)
[5] = dose: 12.5 mg/kg/injection, schedule: Q01DX009 (ip), vehicle: Klucel (hydroxypropylcellulose) (HPC)
[6] = dose: 25.0 mg/kg/injection, schedule: Q01DX009 (ip), vehicle: Klucel (hydroxypropylcellulose) (HPC)
[7] = dose: 60.0 mg/kg/injection, schedule: Q01DX005 (ip), vehicle: saline with Tween-80
[8] = dose: 120.0 mg/kg/injection, schedule: Q01DX005 (ip), vehicle: saline with Tween-80
[9] = dose: 240.0 mg/kg/injection, schedule: Q01DX005 (ip), vehicle: saline with Tween-80
[10] = dose: 50.0 mg/kg/injection, schedule: Q01DX005 (ip), vehicle: saline with Tween-80
[11] = dose: 100.0 mg/kg/injection, schedule: Q01DX005 (ip), vehicle: saline with Tween-80
[12] = dose: 60.0 mg/kg/injection, schedule: Q01DX005 (ip), vehicle: Klucel (hydroxypropylcellulose) (HPC)
[13] = dose: 120.0 mg/kg/injection, schedule: Q01DX005 (ip), vehicle: Klucel (hydroxypropylcellulose) (HPC)
[14] = dose: 240.0 mg/kg/injection, schedule: Q01DX005 (ip), vehicle: Klucel (hydroxypropylcellulose) (HPC)

For COC(=O)C1(C)C(=O)C=CC2(C)C1CC(OC(C)=O)C1(C)C2C(=O)C(OC(C)=O)C2(C)C(c3ccoc3)CC3OC321 (configuration not stated), the T/C (dose: 0.75 mg/kg/injection, schedule: Q01DX005 (ip), vehicle: Klucel (hydroxypropylcellulose) (HPC)) was 99 % of control, the T/C (dose: 1.5 mg/kg/injection, schedule: Q01DX005 (ip), vehicle: Klucel (hydroxypropylcellulose) (HPC)) was 101 % of control and the T/C (dose: 3.0 mg/kg/injection, schedule: Q01DX005 (ip), vehicle: Klucel (hydroxypropylcellulose) (HPC)) was 97 % of control. For the same molecule, the T/C (dose: 6.0 mg/kg/injection, schedule: Q01DX005 (ip), vehicle: Klucel (hydroxypropylcellulose) (HPC)) was 97 % of control and the T/C (dose: 12.0 mg/kg/injection, schedule: Q01DX005 (ip), vehicle: Klucel (hydroxypropylcellulose) (HPC)) was 98 % of control.

For O=C1NCC(CCl)O1 (configuration not stated), the T/C [1] was 100 % of control, the T/C [2] was 101 % of control and the T/C [3] was 102 % of control.

With COC(=O)Nc1cccc(-c2nc3ccc(NC(=O)OC)cc3c(=O)n2-c2ccccc2)c1 the T/C [4] was 111 % of control, the T/C (dose: 8.0 mg/kg/injection, schedule: Q01DX005 (oral), vehicle: Klucel (hydroxypropylcellulose) (HPC)) was 109 % of control and 92 % of control and the T/C [5] was 112 % of control. For the same molecule, the T/C (dose: 16.0 mg/kg/injection, schedule: Q01DX005 (oral), vehicle: Klucel (hydroxypropylcellulose) (HPC)) was 110 % of control and 111 % of control, the T/C (dose: 16.0 mg/kg/injection, schedule: Q01DX005 (oral), vehicle: saline) was 108 % of control and the T/C [6] was 153 % of control. For the same molecule, the T/C (dose: 25.0 mg/kg/injection, schedule: Q01DX009 (ip), vehicle: saline) was 110 % of control, the T/C (dose: 25.0 mg/kg/injection, schedule: Q01DX009 (oral), vehicle: Klucel (hydroxypropylcellulose) (HPC)) was 114 % of control and the T/C (dose: 32.0 mg/kg/injection, schedule: Q01DX005 (oral), vehicle: Klucel (hydroxypropylcellulose) (HPC)) was 112 % of control. The T/C (dose: 32.0 mg/kg/injection, schedule: Q01DX005 (oral), vehicle: saline) was 121 % of control, the T/C (dose: 50.0 mg/kg/injection, schedule: Q01DX009 (ip), vehicle: saline) was 236 % of control and the T/C (dose: 50.0 mg/kg/injection, schedule: Q01DX009 (oral), vehicle: Klucel (hydroxypropylcellulose) (HPC)) was 118 % of control. For the same molecule, the T/C (dose: 64.0 mg/kg/injection, schedule: Q01DX005 (oral), vehicle: Klucel (hydroxypropylcellulose) (HPC)) was 102 % of control, the T/C (dose: 100.0 mg/kg/injection, schedule: Q01DX009 (ip), vehicle: saline) was 202 % of control and 236 % of control and the T/C (dose: 128.0 mg/kg/injection, schedule: Q01DX005 (oral), vehicle: Klucel (hydroxypropylcellulose) (HPC)) was 102 % of control. The T/C (dose: 128.0 mg/kg/injection, schedule: Q01DX005 (oral), vehicle: saline) was 171 % of control, the T/C (dose: 150.0 mg/kg/injection, schedule: Q01DX009 (ip), vehicle: saline) was 236 % of control and the T/C (dose: 200.0 mg/kg/injection, schedule: Q01DX009 (oral), vehicle: Klucel (hydroxypropylcellulose) (HPC)) was 181 % of control. For the same molecule, the T/C (dose: 400.0 mg/kg/injection, schedule: Q01DX009 (oral), vehicle: Klucel (hydroxypropylcellulose) (HPC)) was 183 % of control and the T/C (dose: 800.0 mg/kg/injection, schedule: Q01DX009 (oral), vehicle: Klucel (hydroxypropylcellulose) (HPC)) was 205 % of control.

For Clc1ccc([C@H]2N[C@@H]2c2ccccn2)cc1, the T/C [7] was 94 % of control, the T/C [8] was 103 % of control and the T/C [9] was 94 % of control.

CC(C)C[NH-].CC(C)C[NH-].O.O.[Cl][Pt+2][Cl] was tested, and the T/C (dose: 11.0 mg/kg/injection, schedule: Q01DX009 (ip), vehicle: saline with Tween-80) was 167 % of control, the T/C (dose: 12.5 mg/kg/injection, schedule: Q01DX009 (ip), vehicle: other) was 181 % of control and the T/C (dose: 16.5 mg/kg/injection, schedule: Q01DX009 (ip), vehicle: saline with Tween-80) was 180 % of control. For the same molecule, the T/C (dose: 25.0 mg/kg/injection, schedule: Q01DX009 (ip), vehicle: other) was 200 % of control and the T/C (dose: 25.0 mg/kg/injection, schedule: Q01DX009 (ip), vehicle: saline with Tween-80) was 218 % of control.

With CSCCC(N)C(=O)NC(CC(N)=O)C(=O)O (stereo not drawn) (H-Met-Asn-OH; configuration not given here) the T/C (dose: 50.0 mg/kg/injection, schedule: Q01DX005 (ip), vehicle: saline) was 98 % of control, the T/C (dose: 100.0 mg/kg/injection, schedule: Q01DX005 (ip), vehicle: saline) was 101 % of control and the T/C (dose: 200.0 mg/kg/injection, schedule: Q01DX005 (ip), vehicle: saline) was 99 % of control.

With COC(=O)C/C(C(=O)OC)=C1\CCCC2=C1N1CCCC1C2(CC(=O)OC)C(=O)OC (configuration not stated) the T/C (dose: 12.5 mg/kg/injection, schedule: Q01DX001 (ip), vehicle: Klucel (hydroxypropylcellulose) (HPC)) was 97 % of control, the T/C (dose: 25.0 mg/kg/injection, schedule: Q01DX001 (ip), vehicle: Klucel (hydroxypropylcellulose) (HPC)) was 98 % of control and the T/C (dose: 50.0 mg/kg/injection, schedule: Q01DX001 (ip), vehicle: Klucel (hydroxypropylcellulose) (HPC)) was 100 % of control.

For CCOC(=O)COc1cc2c(cc1Cc1ccc(OC)cc1)OCO2, the T/C [10] was 97 % of control and the T/C [11] was 92 % of control.

In the case of O=P(OCC(F)(F)F)(OCC(F)(F)F)c1ccccc1, the T/C [10] is reported as 102 % of control, the T/C [11] is reported as 101 % of control and the T/C (dose: 200.0 mg/kg/injection, schedule: Q01DX005 (ip), vehicle: saline with Tween-80) is reported as 96 % of control.

In the case of Cc1nc(N)[nH]c(=O)c1CCc1ccccc1, the T/C [1] is reported as 97 % of control, the T/C [2] is reported as 99 % of control and the T/C [3] is reported as 98 % of control.

CN(C)S(=O)(=O)c1ncnc2nc[nH]c12 was tested, and the T/C (dose: 100.0 mg/kg/injection, schedule: Q01DX009 (ip), vehicle: saline with Tween-80) was 90 % of control, the T/C (dose: 100.0 mg/kg/injection, schedule: Q04DX003 (ip), vehicle: saline sonified) was 100 % of control and the T/C (dose: 200.0 mg/kg/injection, schedule: Q01DX009 (ip), vehicle: saline with Tween-80) was 90 % of control. For the same molecule, the T/C (dose: 200.0 mg/kg/injection, schedule: Q04DX003 (ip), vehicle: saline sonified) was 91 % of control, the T/C (dose: 400.0 mg/kg/injection, schedule: Q01DX009 (ip), vehicle: saline with Tween-80) was 100 % of control and the T/C (dose: 400.0 mg/kg/injection, schedule: Q04DX003 (ip), vehicle: saline sonified) was 91 % of control.

With CC(=O)C1=C(c2ccccc2)NC(=O)NC1c1ccco1 (configuration not stated) the T/C (dose: 100.0 mg/kg/injection, schedule: Q04DX003 (ip), vehicle: saline with Tween-80) was 95 % of control, the T/C (dose: 200.0 mg/kg/injection, schedule: Q04DX003 (ip), vehicle: saline with Tween-80) was 95 % of control and the T/C (dose: 400.0 mg/kg/injection, schedule: Q04DX003 (ip), vehicle: saline with Tween-80) was 90 % of control.

In the case of Clc1ccc2nc(Cl)c3ccccc3c2c1, the T/C (dose: 0.78 mg/kg/injection, schedule: Q01DX009 (ip), vehicle: Klucel (hydroxypropylcellulose) (HPC)) is reported as 88 % of control and 93 % of control, the T/C (dose: 1.56 mg/kg/injection, schedule: Q01DX009 (ip), vehicle: Klucel (hydroxypropylcellulose) (HPC)) is reported as 87 % of control and 94 % of control and the T/C (dose: 3.13 mg/kg/injection, schedule: Q01DX009 (ip), vehicle: Klucel (hydroxypropylcellulose) (HPC)) is reported as 94 % of control. The T/C [4] was 120 % of control and 89 % of control and 95 % of control, the T/C [6] was 89 % of control and the T/C (dose: 50.0 mg/kg/injection, schedule: Q01DX009 (ip), vehicle: Klucel (hydroxypropylcellulose) (HPC)) was 87 % of control.

With N#CC1=C(NC(N)=O)CCCC1 the T/C [12] was 106 % of control, the T/C [13] was 100 % of control and the T/C [14] was 106 % of control.

For Cc1ccc(N2CC3CC4(C)C=CC3(C2)O4)cc1 (configuration not stated), the T/C [7] was 103 % of control, the T/C [8] was 111 % of control and the T/C [9] was 98 % of control.

For CNC(=O)NCCCCCCNC(=O)NC, the T/C (dose: 50.0 mg/kg/injection, schedule: Q01DX005 (ip), vehicle: Klucel (hydroxypropylcellulose) (HPC)) was 99 % of control and 95 % of control, the T/C (dose: 100.0 mg/kg/injection, schedule: Q01DX005 (ip), vehicle: Klucel (hydroxypropylcellulose) (HPC)) was 87 % of control and 95 % of control and the T/C (dose: 200.0 mg/kg/injection, schedule: Q01DX005 (ip), vehicle: Klucel (hydroxypropylcellulose) (HPC)) was 89 % of control.

In the case of COc1cccc(C2c3cc4c(cc3OC(C)(O)C2C)OCO4)c1O (configuration not stated), the T/C [12] is reported as 96 % of control, the T/C [13] is reported as 98 % of control and the T/C [14] is reported as 93 % of control.

In the case of CCC(O)CC1OC2(CCC1C)CC1OC(=O)/C=C\C(C)(O)C(O)C(C)C(O)C(OC3CC(OC)C(O)C(C)O3)C(O)C(C)(O)CCC/C=C/C3CC(C)COC3(O)CC(O2)C1C (configuration not stated), the T/C (dose: 1.0 mg/kg/injection, schedule: Q01DX005 (ip), vehicle: saline + alcohol) is reported as 100 % of control and the T/C (dose: 2.0 mg/kg/injection, schedule: Q01DX005 (ip), vehicle: saline + alcohol) is reported as 104 % of control.

Cc1c2cccc(F)c2c[n+]2ccccc12 was tested, and the T/C [4] was 96 % of control, the T/C [5] was 103 % of control and the T/C [6] was 102 % of control and 113 % of control.
